# In US8435980B2 (AbbVie Inc., priority 2009, dated 2013):
# Biological target: T1, Cdc7 (BEV coexpressed huCDC7/DBF4) (Homo sapiens, UniProt O00311)
# T1 construct: made in house; host or cells: BEV (baculovirus expression vector) co-expression; insect cells are implied but no cell line is named
# Assay: Cdc7 enzyme inhibition assay ([33P]ATP, biotinylated peptide substrate, FlashPlate)
# Format: biochemical
# Conditions: Table 3; enzyme inhibition data (Ki)
# Procedure: Cdc7 (BEV coexpressed huCDC7/DBF4) is prepared internally. Cdc7 assays are conducted as follows with final concentrations as listed. […] Reactions are quenched after 1 hr by the addition of 90 μL stop buffer (50 mM EDTA, 2M NaCl). […] (Ki) for exemplary compounds.
# T1 sequence (O00311 whole entry): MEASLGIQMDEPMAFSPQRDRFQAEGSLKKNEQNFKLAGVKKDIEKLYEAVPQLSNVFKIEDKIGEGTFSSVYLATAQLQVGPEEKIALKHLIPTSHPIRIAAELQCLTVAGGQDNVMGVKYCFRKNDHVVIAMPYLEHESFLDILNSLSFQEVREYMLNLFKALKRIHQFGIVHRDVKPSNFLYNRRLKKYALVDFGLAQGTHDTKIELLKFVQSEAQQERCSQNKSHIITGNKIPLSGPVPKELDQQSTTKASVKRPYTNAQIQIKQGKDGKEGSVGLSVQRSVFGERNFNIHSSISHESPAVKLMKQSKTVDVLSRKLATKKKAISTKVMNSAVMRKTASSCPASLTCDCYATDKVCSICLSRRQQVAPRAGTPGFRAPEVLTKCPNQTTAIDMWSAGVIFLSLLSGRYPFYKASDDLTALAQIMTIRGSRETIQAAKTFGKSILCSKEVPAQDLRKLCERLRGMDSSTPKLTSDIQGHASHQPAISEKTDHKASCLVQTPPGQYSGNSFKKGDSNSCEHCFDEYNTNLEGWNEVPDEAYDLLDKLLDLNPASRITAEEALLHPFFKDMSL
# T1 sequence (Q9UBU7 whole entry partner): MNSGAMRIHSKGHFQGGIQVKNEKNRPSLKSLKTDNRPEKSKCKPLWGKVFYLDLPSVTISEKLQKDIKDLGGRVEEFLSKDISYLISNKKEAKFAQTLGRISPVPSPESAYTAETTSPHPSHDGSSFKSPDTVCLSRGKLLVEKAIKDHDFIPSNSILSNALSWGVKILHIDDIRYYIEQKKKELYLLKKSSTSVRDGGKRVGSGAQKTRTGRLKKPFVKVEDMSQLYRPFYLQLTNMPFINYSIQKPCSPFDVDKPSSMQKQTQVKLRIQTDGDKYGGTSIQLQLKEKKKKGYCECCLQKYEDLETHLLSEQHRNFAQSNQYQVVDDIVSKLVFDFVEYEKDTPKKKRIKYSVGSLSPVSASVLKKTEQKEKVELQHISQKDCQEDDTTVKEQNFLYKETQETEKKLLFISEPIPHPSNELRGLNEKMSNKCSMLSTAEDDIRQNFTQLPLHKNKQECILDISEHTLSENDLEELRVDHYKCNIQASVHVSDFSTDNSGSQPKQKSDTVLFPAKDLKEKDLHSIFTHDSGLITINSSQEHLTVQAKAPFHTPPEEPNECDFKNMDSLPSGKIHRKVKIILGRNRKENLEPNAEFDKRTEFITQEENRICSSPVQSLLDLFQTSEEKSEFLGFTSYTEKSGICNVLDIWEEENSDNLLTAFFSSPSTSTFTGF
row,Ki,Structure (SMILES)
1,< 10 nM,"CN(C)C1CCC(CC2CCC(Nc3cc(-c4c[nH]c5ncccc45)cc(Cl)n3)CC2)CC1 (stereo not drawn) [Example 155, 6-chloro-N-(4-{[4-(dimethylamino)cyclohexyl]methyl}cyclohexyl)-4-(1H-pyrrolo[2,3-b]pyridin-3-yl)pyridin-2-amine]"
2,< 10 nM,Clc1cc(-c2c[nH]c3ncccc23)cc(NC2CCC(CC3CCC(NC4CCCCC4)CC3)CC2)n1 (stereo not drawn) [Example 156]
3,< 10 nM,"Clc1cc(-c2c[nH]c3ncccc23)cc(N[C@H]2CC[C@H](NC3CCN(C4CCCCC4)CC3)CC2)n1 [Example 157, trans-N-[6-chloro-4-(1H-pyrrolo[2,3-b]pyridin-3-yl)pyridin-2-yl]-N′-(1-cyclohexylpiperidin-4-yl)cyclohexane-1,4-diamine]"
4,< 10 nM,"Clc1cc(-c2c[nH]c3ncccc23)cc(NC2CCC(C3CCNCC3)CC2)n1 (stereo not drawn) [Example 159, 6-chloro-N-[4-(piperidin-4-yl)cyclohexyl]-4-(1H-pyrrolo[2,3-b]pyridin-3-yl)pyridin-2-amine]"
5,< 10 nM,"O=C(N[C@H]1CC[C@H](Nc2cc(-c3c[nH]c4ncccc34)cc(Cl)n2)CC1)C1CNC1 [Example 160, N-(trans-4-{[6-chloro-4-(1H-pyrrolo[2,3-b]pyridin-3-yl)pyridin-2-yl]amino}cyclohexyl)azetidine-3-carboxamide]"
6,< 10 nM,"CC(=O)NC1CCC(N[C@H]2CC[C@H](Nc3cc(-c4c[nH]c5ncccc45)cc(Cl)n3)CC2)CC1 (stereo partly drawn) [Example 161, N-{4-[(trans-4-{[6-chloro-4-(1H-pyrrolo[2,3-b]pyridin-3-yl)pyridin-2-yl]amino}cyclohexyl)amino]cyclohexyl}acetamide]"
7,< 10 nM,"O=C(NC1CCC(N[C@H]2CC[C@H](Nc3cc(-c4c[nH]c5ncccc45)cc(Cl)n3)CC2)CC1)C1CC1 (stereo partly drawn) [Example 162, N-{4-[(trans-4-{[6-chloro-4-(1H-pyrrolo[2,3-b]pyridin-3-yl)pyridin-2-yl]amino}cyclohexyl)amino]cyclohexyl}cyclopropanecarboxamide]"
8,< 10 nM,"CC(=O)N1CCC(C2CCC(Nc3cc(-c4c[nH]c5ncccc45)cc(Cl)n3)CC2)CC1 (stereo not drawn) [Example 163, 1-[4-(4-{[6-chloro-4-(1H-pyrrolo[2,3-b]pyridin-3-yl)pyridin-2-yl]amino}cyclohexyl)piperidin-1-yl]ethanone]"
9,< 10 nM,"CC(=O)NCCS(=O)(=O)NC1CCCC(Nc2cc(-c3c[nH]c4ncccc34)cc(Cl)n2)C1 (stereo not drawn) [Example 164, N-{2-[(3-{[6-chloro-4-(1H-pyrrolo[2,3-b]pyridin-3-yl)pyridin-2-yl]amino}cyclohexyl)sulfamoyl]ethyl}acetamide]"
10,< 10 nM,"O=C(NCCS(=O)(=O)NC1CCCC(Nc2cc(-c3c[nH]c4ncccc34)cc(Cl)n2)C1)C1CC1 (stereo not drawn) [Example 165, N-{2-[(3-{[6-chloro-4-(1H-pyrrolo[2,3-b]pyridin-3-yl)pyridin-2-yl]amino}cyclohexyl)sulfamoyl]ethyl}cyclopropanecarboxamide]"

# Further lines, the compound ahead of its results:
row,Structure (SMILES),Ki
1,"CC(C)(CNC(=O)C1CC1)CNc1cc(-c2c[nH]c3ncccc23)cc(Cl)n1 [Example 124, N-(3-{[6-chloro-4-(1H-pyrrolo[2,3-b]pyridin-3-yl)pyridin-2-yl]amino}-2,2-dimethylpropyl)cyclopropanecarboxamide]",< 10 nM
2,"O=C(C1CC1)N1CCC(Nc2cc(-c3c[nH]c4ncccc34)cc(Cl)n2)CC1 [Example 126, (4-{[6-chloro-4-(1H-pyrrolo[2,3-b]pyridin-3-yl)pyridin-2-yl]amino}piperidin-1-yl)(cyclopropyl)methanone]",< 10 nM
3,"C[C@@H](C(=O)N[C@H]1CC[C@H](Nc2cc(-c3c[nH]c4ncccc34)cc(Cl)n2)CC1)N(C)C [Example 127, N-(trans-4-{[6-chloro-4-(1H-pyrrolo[2,3-b]pyridin-3-yl)pyridin-2-yl]amino}cyclohexyl)-N^2,N^2-dimethyl-L-alaninamide]",< 10 nM
4,"Clc1cc(-c2c[nH]c3ncccc23)cc(NC2CCN(C3CCC3)CC2)n1 [Example 128, 6-chloro-N-(1-cyclobutylpiperidin-4-yl)-4-(1H-pyrrolo[2,3-b]pyridin-3-yl)pyridin-2-amine]",< 10 nM
5,"O=C(NC1CCCC(Nc2cc(-c3c[nH]c4ncccc34)cc(Cl)n2)C1)C1CCCCN1 (stereo not drawn) [Example 129, N-(3-{[6-chloro-4-(1H-pyrrolo[2,3-b]pyridin-3-yl)pyridin-2-yl]amino}cyclohexyl)piperidine-2-carboxamide]",< 10 nM
6,"O=C(CN1CCCC1)NC1CCCC(Nc2cc(-c3c[nH]c4ncccc34)cc(Cl)n2)C1 (stereo not drawn) [Example 130, N-(3-{[6-chloro-4-(1H-pyrrolo[2,3-b]pyridin-3-yl)pyridin-2-yl]amino}cyclohexyl)-2-(pyrrolidin-1-yl)acetamide]",< 10 nM
7,"O=C(N[C@H]1CC[C@H](Nc2cc(-c3c[nH]c4ncccc34)cc(Cl)n2)CC1)C1CCC1 [Example 133, N-(trans-4-{[6-chloro-4-(1H-pyrrolo[2,3-b]pyridin-3-yl)pyridin-2-yl]amino}cyclohexyl)cyclobutanecarboxamide]",< 10 nM
8,"NC1(C(=O)NC2CCCC(Nc3cc(-c4c[nH]c5ncccc45)cc(Cl)n3)C2)CCC1 (stereo not drawn) [Example 135, 1-amino-N-(3-{[6-chloro-4-(1H-pyrrolo[2,3-b]pyridin-3-yl)pyridin-2-yl]amino}cyclohexyl)cyclobutanecarboxamide]",< 10 nM
9,"O=C(CNC1CCCC1)N[C@H]1CC[C@H](Nc2cc(-c3c[nH]c4ncccc34)cc(Cl)n2)CC1 [Example 137, N-(trans-4-{[6-chloro-4-(1H-pyrrolo[2,3-b]pyridin-3-yl)pyridin-2-yl]amino}cyclohexyl)-N^2-cyclopentylglycinamide]",< 10 nM
10,"CS(=O)(=O)N1CCCC(Nc2cc(-c3c[nH]c4ncccc34)cc(Cl)n2)C1 (stereo not drawn) [Example 138, 6-chloro-N-[1-(methylsulfonyl)piperidin-3-yl]-4-(1H-pyrrolo[2,3-b]pyridin-3-yl)pyridin-2-amine]",< 10 nM
11,"O=C1CC[C@@H](C(=O)NC2CCCC(Nc3cc(-c4c[nH]c5ncccc45)cc(Cl)n3)C2)N1 (stereo partly drawn) [Example 139, N-(3-{[6-chloro-4-(1H-pyrrolo[2,3-b]pyridin-3-yl)pyridin-2-yl]amino}cyclohexyl)-5-oxoprolinamide]",< 10 nM
12,"O=C(CN1CCOCC1)N[C@H]1CC[C@H](Nc2cc(-c3c[nH]c4ncccc34)cc(Cl)n2)CC1 [Example 141, N-(trans-4-{[6-chloro-4-(1H-pyrrolo[2,3-b]pyridin-3-yl)pyridin-2-yl]amino}cyclohexyl)-2-(morpholin-4-yl)acetamide]",< 10 nM
13,"O=C(CN1CCN(c2ccccn2)CC1)N[C@H]1CC[C@H](Nc2cc(-c3c[nH]c4ncccc34)cc(Cl)n2)CC1 [Example 142, N-(trans-4-{[6-chloro-4-(1H-pyrrolo[2,3-b]pyridin-3-yl)pyridin-2-yl]amino}cyclohexyl)-2-[4-(pyridin-2-yl)piperazin-1-yl]acetamide]",< 10 nM
14,"NC1CCC(CC2CCC(Nc3cc(-c4c[nH]c5ncccc45)cc(Cl)n3)CC2)CC1 (stereo not drawn) [Example 143, N-{4-[(4-aminocyclohexyl)methyl]cyclohexyl}-6-chloro-4-(1H-pyrrolo[2,3-b]pyridin-3-yl)pyridin-2-amine]",< 10 nM
15,"O=C1CC(C(=O)N[C@H]2CC[C@H](Nc3cc(-c4c[nH]c5ncccc45)cc(Cl)n3)CC2)CC(=O)N1 [Example 144, N-(trans-4-{[6-chloro-4-(1H-pyrrolo[2,3-b]pyridin-3-yl)pyridin-2-yl]amino}cyclohexyl)-2,6-dioxopiperidine-4-carboxamide]",< 10 nM
16,"NCCS(=O)(=O)NC1CCCC(Nc2cc(-c3c[nH]c4ncccc34)cc(Cl)n2)C1 (stereo not drawn) [Example 145, 2-amino-N-(3-{[6-chloro-4-(1H-pyrrolo[2,3-b]pyridin-3-yl)pyridin-2-yl]amino}cyclohexyl)ethanesulfonamide]",< 10 nM
17,"CN1CCCC(CNc2cc(-c3c[nH]c4ncccc34)cc(Cl)n2)C1 (stereo not drawn) [Example 146, 6-chloro-N-[(1-methylpiperidin-3-yl)methyl]-4-(1H-pyrrolo[2,3-b]pyridin-3-yl)pyridin-2-amine]",< 10 nM
18,"CC(=O)N1CCCC(Nc2cc(-c3c[nH]c4ncccc34)cc(Cl)n2)C1 (stereo not drawn) [Example 147, 1-(3-{[6-chloro-4-(1H-pyrrolo[2,3-b]pyridin-3-yl)pyridin-2-yl]amino}piperidin-1-yl)ethanone]",< 10 nM
19,"CN1CCC(N[C@H]2CC[C@H](Nc3cc(-c4c[nH]c5ncccc45)cc(Cl)n3)CC2)CC1 [Example 148, trans-N-[6-chloro-4-(1H-pyrrolo[2,3-b]pyridin-3-yl)pyridin-2-yl]-N′-(1-methylpiperidin-4-yl)cyclohexane-1,4-diamine]",< 10 nM
20,"COc1cnc2[nH]cc(-c3cc(Cl)nc(N[C@H]4CC[C@H](O)CC4)c3)c2c1 [Example 149, trans-4-{[6-chloro-4-(5-methoxy-1H-pyrrolo[2,3-b]pyridin-3-yl)pyridin-2-yl]amino}cyclohexanol]",< 10 nM
21,"O=C(CN1CCOCC1)Nc1cc(-c2c[nH]c3ncccc23)cc(Cl)n1 [Example 150, N-[6-chloro-4-(1H-pyrrolo[2,3-b]pyridin-3-yl)pyridin-2-yl]-2-(morpholin-4-yl)acetamide]",< 10 nM
22,"O=C(CN[C@H]1CC[C@H](O)CC1)N[C@H]1CC[C@H](Nc2cc(-c3c[nH]c4ncccc34)cc(Cl)n2)CC1 [Example 152, N-(trans-4-{[6-chloro-4-(1H-pyrrolo[2,3-b]pyridin-3-yl)pyridin-2-yl]amino}cyclohexyl)-N^2-(trans-4-hydroxycyclohexyl)glycinamide]",< 10 nM
23,"O=C(CNCCN1CCOCC1)N[C@H]1CC[C@H](Nc2cc(-c3c[nH]c4ncccc34)cc(Cl)n2)CC1 [Example 153, N-(trans-4-{[6-chloro-4-(1H-pyrrolo[2,3-b]pyridin-3-yl)pyridin-2-yl]amino}cyclohexyl)-N^2-[2-(morpholin-4-yl)ethyl]glycinamide]",< 10 nM
